Columns and labels:
[1] = tested on: A549-ACE2 infected with SARS-CoV-2; assay: morphology score (similarity to uninfected cells); higher = more like uninfected cells; conditions: 24 h
HepG2 [2] = assay: drug sensitivity score (DSS) for viability; higher = more toxic; extreme values may be limits of the assay; conditions: 72 h
Caco-2 [3] = assay: as above; conditions: 72 h
[4] = tested on: A549-ACE2 infected with SARS-CoV-2; assay: SARS-CoV-2 infection rate relative to DMSO; higher = more infection; conditions: 24 h
HepG2 [5] = assay: cell viability relative to DMSO; higher = less toxic; conditions: 72 h
Caco-2 [6] = assay: as above; conditions: 72 h
A549-ACE2 [7] = assay: drug-induced phospholipidosis relative to tamoxifen; higher = more phospholipidosis
HepG2 [8] = assay: relative viability EC50 (midpoint between 100% and the lowest measured viability); higher = less toxic; conditions: 72 h
Caco-2 [9] = assay: as above; conditions: 72 h
[10] = tested on: A549-ACE2 infected with SARS-CoV-2; assay: cell count relative to DMSO; higher = less toxic; conditions: 24 h
Calu-3 [11] = assay: drug sensitivity score (DSS) for viability; higher = more toxic; extreme values may be limits of the assay; conditions: 72 h
U2OS [12] = assay: as above; conditions: 72 h
Vero E6 [13] = assay: as above; conditions: 72 h
Calu-3 [14] = assay: cell viability relative to DMSO; higher = less toxic; conditions: 72 h
U2OS [15] = assay: as above; conditions: 72 h
Vero E6 [16] = assay: as above; conditions: 72 h
Calu-3 [17] = assay: relative viability EC50 (midpoint between 100% and the lowest measured viability); higher = less toxic; conditions: 72 h
U2OS [18] = assay: as above; conditions: 72 h
Vero E6 [19] = assay: as above; conditions: 72 h
A549-ACE2 [20] = assay: phospholipidosis EC50; higher = less potent phospholipidosis inducer

O=c1oc(-c2ccc(C(F)(F)F)cc2)nn1Cc1cc(Cl)ccc1O
Conditions	SARS-CoV-2 infection rate [%]	cell count [%]	cell viability [%]	morphology score
Caco-2 [6], 1 nM	–	–	109	–
Caco-2 [6], 10 nM	–	–	94.7	–
Caco-2 [6], 100 nM	–	–	101	–
Caco-2 [6], 1000 nM	–	–	99.2	–
Caco-2 [6], 10000 nM	–	–	92.6	–
HepG2 [5], 1 nM	–	–	105	–
HepG2 [5], 10 nM	–	–	107	–
HepG2 [5], 100 nM	–	–	99.7	–
HepG2 [5], 1000 nM	–	–	99.2	–
HepG2 [5], 10000 nM	–	–	97.3	–
[1], 0.3 µM	–	–	–	0.38
[1], 3 µM	–	–	–	-0.01
[1], 10 µM	–	–	–	0.05
[1], 30 µM	–	–	–	0.43
[4], 0.3 µM	84	–	–	–
[4], 3 µM	102	–	–	–
[4], 10 µM	99	–	–	–
[4], 30 µM	68	–	–	–
[10], 0.3 µM	–	101	–	–
[10], 3 µM	–	102	–	–
[10], 10 µM	–	80	–	–
[10], 30 µM	–	65	–	–

Conditions	drug sensitivity score	relative viability EC50 [µM]
Caco-2 [3]	0	–
Caco-2 [9]	–	> 10
HepG2 [2]	0	–
HepG2 [8]	–	> 10

drug-induced phospholipidosis [%], A549-ACE2 [7]
Conditions	0.3 µM	0.833333 µM	3.33333 µM	6.66667 µM	10 µM	30 µM
24 h	-1	-1.2	-2.36	-1.21	0.96	6.42
48 h	3.5	-0.73	0.6	1.96	2.52	8.32
72 h	4.07	0.196	1.24	1.18	2.49	10.1

O=[N+]([O-])/C=C/c1ccc2c(c1)OCO2 [3,4-methylenedioxy-beta-nitrostyrene]
Conditions	SARS-CoV-2 infection rate, [4] [%]	cell count, [10] [%]	cell viability, Caco-2 [6] [%]	cell viability, Calu-3 [14] [%]	cell viability, HepG2 [5] [%]	cell viability, U2OS [15] [%]	cell viability, Vero E6 [16] [%]	morphology score, [1]
1 nM	–	–	94.9	101	115	99.2	103	–
10 nM	–	–	107	105	97.9	97.5	101	–
100 nM	–	–	93.8	101	101	97.1	99.9	–
0.3 µM	95	106	–	–	–	–	–	0.14
1000 nM	–	–	104	100	95.9	100	96.9	–
3 µM	107	97	–	–	–	–	–	0.21
10 µM	39	49	–	–	–	–	–	0.48
10000 nM	–	–	72.3	95.5	91.3	43.7	84.3	–
30 µM	36	16	–	–	–	–	–	0.16

Conditions	drug sensitivity score	relative viability EC50 [µM]
Caco-2 [3]	0.9	–
Calu-3 [11]	0	–
Calu-3 [17]	–	> 10
HepG2 [2]	0	–
HepG2 [8]	–	> 10
U2OS [12]	3	–
U2OS [18]	–	3.2
Vero E6 [13]	0.6	–
Vero E6 [19]	–	> 10

drug-induced phospholipidosis [%], A549-ACE2 [7]
Conditions	0.3 µM	0.833333 µM	3.33333 µM	6.66667 µM	30 µM
24 h	1.47	-0.82	0.27	3.08	-3.87
48 h	-0.23	-2.22	-2.44	-0.19	–
72 h	-0.171	-1.69	-1.41	-0.796	–

Cc1[nH]cnc1-c1ccc(Cl)cc1 [lofemizole]
Conditions	SARS-CoV-2 infection rate, [4] [%]	cell count, [10] [%]	cell viability, Caco-2 [6] [%]	cell viability, HepG2 [5] [%]	cell viability, U2OS [15] [%]	cell viability, Vero E6 [16] [%]	morphology score, [1]
1 nM	–	–	98.4	99.4	95.9	103	–
10 nM	–	–	94.9	102	97.2	97	–
100 nM	–	–	95.2	105	97.5	96.5	–
0.3 µM	94	97	–	–	–	–	0.05
1000 nM	–	–	98.7	93	99.2	96.7	–
3 µM	104	102	–	–	–	–	0.07
10 µM	105	100	–	–	–	–	-0.16
10000 nM	–	–	101	107	103	102	–
30 µM	100	94	–	–	–	–	-0.13

Conditions	drug sensitivity score	relative viability EC50 [µM]
Caco-2 [3]	0	–
Caco-2 [9]	–	> 10
HepG2 [2]	0	–
HepG2 [8]	–	> 10
U2OS [12]	0	–
U2OS [18]	–	> 10
Vero E6 [13]	0	–
Vero E6 [19]	–	> 10

drug-induced phospholipidosis [%], A549-ACE2 [7]
Conditions	0.3 µM	0.833333 µM	3.33333 µM	6.66667 µM	10 µM	30 µM
24 h	3.89	-1.13	0.51	-0.91	0.71	5.39
48 h	4.07	0.92	2.92	3.98	3.67	11.9
72 h	4.05	0.285	0.756	2.05	2.84	12.6

CCN(CC)CCCCNc1ncc2cc(-c3cc(OC)cc(OC)c3)c(NC(=O)NC(C)(C)C)nc2n1
Conditions	SARS-CoV-2 infection rate [%]	cell count [%]	cell viability [%]	morphology score	phospholipidosis EC50 [µM]
A549-ACE2 [20], 24 h	–	–	–	–	3.18
A549-ACE2 [20], 48 h	–	–	–	–	3.06
Caco-2 [6], 1 nM	–	–	102	–	–
Caco-2 [6], 10 nM	–	–	105	–	–
Caco-2 [6], 100 nM	–	–	103	–	–
Caco-2 [6], 1000 nM	–	–	103	–	–
Caco-2 [6], 10000 nM	–	–	69	–	–
Calu-3 [14], 1 nM	–	–	98.9	–	–
Calu-3 [14], 10 nM	–	–	98.9	–	–
Calu-3 [14], 100 nM	–	–	100	–	–
Calu-3 [14], 1000 nM	–	–	98.5	–	–
Calu-3 [14], 10000 nM	–	–	75.6	–	–
HepG2 [5], 1 nM	–	–	91.9	–	–
HepG2 [5], 10 nM	–	–	101	–	–
HepG2 [5], 100 nM	–	–	87.9	–	–
HepG2 [5], 1000 nM	–	–	96.1	–	–
HepG2 [5], 10000 nM	–	–	45.5	–	–
U2OS [15], 1 nM	–	–	106	–	–
U2OS [15], 10 nM	–	–	105	–	–
U2OS [15], 100 nM	–	–	100	–	–
U2OS [15], 1000 nM	–	–	85.8	–	–
U2OS [15], 10000 nM	–	–	41.5	–	–
Vero E6 [16], 1 nM	–	–	94.5	–	–
Vero E6 [16], 10 nM	–	–	97.1	–	–
Vero E6 [16], 100 nM	–	–	100	–	–
Vero E6 [16], 1000 nM	–	–	90.1	–	–
Vero E6 [16], 10000 nM	–	–	35.9	–	–
[1], 0.1 µM	–	–	–	0.01	–
[1], 0.3 µM	–	–	–	-0.12	–
[1], 1 µM	–	–	–	0.28	–
[1], 3 µM	–	–	–	0.68	–
[4], 0.1 µM	105	–	–	–	–
[4], 0.3 µM	105	–	–	–	–
[4], 1 µM	96	–	–	–	–
[4], 3 µM	35	–	–	–	–
[10], 0.1 µM	–	96	–	–	–
[10], 0.3 µM	–	90	–	–	–
[10], 1 µM	–	103	–	–	–
[10], 3 µM	–	109	–	–	–

Conditions	drug sensitivity score	relative viability EC50 [µM]
Caco-2 [3]	1.2	–
Calu-3 [11]	1.1	–
Calu-3 [17]	–	> 10
HepG2 [2]	3.5	–
HepG2 [8]	–	2.58
U2OS [12]	5.4	–
U2OS [18]	–	1.58
Vero E6 [13]	5.2	–
Vero E6 [19]	–	1.96

drug-induced phospholipidosis [%], A549-ACE2 [7]
Conditions	0.3 µM	0.833333 µM	3.33333 µM	6.66667 µM	10 µM	30 µM
24 h	4.11	13.5	106	165	234	84.5
48 h	4.6	12.8	151	224	200	–
72 h	6.12	13.2	–	–	168	–

CN1CCC[C@@H]1CCO[C@](C)(c1ccccc1)c1ccc(Cl)cc1 [clemastine]
Conditions	SARS-CoV-2 infection rate [%]	cell count [%]	cell viability [%]	morphology score	phospholipidosis EC50 [µM]
A549-ACE2 [20], 24 h	–	–	–	–	3.92
A549-ACE2 [20], 48 h	–	–	–	–	4.81
A549-ACE2 [20], 72 h	–	–	–	–	4.96
Calu-3 [14], 1 nM	–	–	96.8	–	–
Calu-3 [14], 10 nM	–	–	101	–	–
Calu-3 [14], 100 nM	–	–	91.8	–	–
Calu-3 [14], 1000 nM	–	–	105	–	–
Calu-3 [14], 10000 nM	–	–	73.9	–	–
HepG2 [5], 1 nM	–	–	108	–	–
HepG2 [5], 10 nM	–	–	95.6	–	–
HepG2 [5], 100 nM	–	–	104	–	–
HepG2 [5], 1000 nM	–	–	96.5	–	–
HepG2 [5], 10000 nM	–	–	78.5	–	–
U2OS [15], 1 nM	–	–	95.4	–	–
U2OS [15], 10 nM	–	–	101	–	–
U2OS [15], 100 nM	–	–	96.1	–	–
U2OS [15], 1000 nM	–	–	103	–	–
U2OS [15], 10000 nM	–	–	96.7	–	–
Vero E6 [16], 1 nM	–	–	102	–	–
Vero E6 [16], 10 nM	–	–	96.5	–	–
Vero E6 [16], 100 nM	–	–	96.8	–	–
Vero E6 [16], 1000 nM	–	–	95.6	–	–
Vero E6 [16], 10000 nM	–	–	96.3	–	–
[1], 0.3 µM	–	–	–	0.04	–
[1], 3 µM	–	–	–	0.8	–
[1], 10 µM	–	–	–	0.86	–
[1], 30 µM	–	–	–	0.52	–
[4], 0.3 µM	100	–	–	–	–
[4], 3 µM	43	–	–	–	–
[4], 10 µM	32	–	–	–	–
[4], 30 µM	21	–	–	–	–
[10], 0.3 µM	–	99	–	–	–
[10], 3 µM	–	120	–	–	–
[10], 10 µM	–	123	–	–	–
[10], 30 µM	–	104	–	–	–

Conditions	drug sensitivity score	relative viability EC50 [µM]
Caco-2 [3]	0	–
Caco-2 [9]	–	> 10
Calu-3 [11]	0.8	–
HepG2 [2]	1.2	–
HepG2 [8]	–	> 10
U2OS [12]	0	–
U2OS [18]	–	> 10
Vero E6 [13]	0	–
Vero E6 [19]	–	> 10

drug-induced phospholipidosis [%], A549-ACE2 [7]
Conditions	0.3 µM	0.833333 µM	3.33333 µM	6.66667 µM	10 µM	30 µM
24 h	0.63	8.33	38.5	87.2	102	98.4
48 h	1.7	9.62	25.8	80.6	96.8	–
72 h	4.55	9.81	21.5	79.5	95.6	–

From the supplement of paper PMC13380429
